According to publication PMC12455996, “TGF-β inhibitor SB431542 suppresses SARS-CoV-2 replication through multistep inhibition” (Journal of Virology, 2025):

Target: T1, SARS-CoV-2 ORF3a (Severe acute respiratory syndrome coronavirus 2, UniProt P0DTC3)
T1 construct: gene 3a
Test: isothermal titration calorimetry
Assay type: binding

T1 sequence (P0DTC3 whole entry): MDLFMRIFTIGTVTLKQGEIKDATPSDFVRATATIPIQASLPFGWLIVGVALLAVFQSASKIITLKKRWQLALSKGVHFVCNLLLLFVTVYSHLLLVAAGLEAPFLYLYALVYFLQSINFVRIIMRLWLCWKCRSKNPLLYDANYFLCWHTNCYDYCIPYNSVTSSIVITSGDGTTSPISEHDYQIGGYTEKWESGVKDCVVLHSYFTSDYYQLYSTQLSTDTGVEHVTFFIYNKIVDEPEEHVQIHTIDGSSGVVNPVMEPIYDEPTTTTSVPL

SMILES: NC(=O)c1ccc(-c2nc(-c3ccc4c(c3)OCO4)c(-c3ccccn3)[nH]2)cc1 [SB431542]
- Kd: 220 ± 68.1 nM
